Experimental findings from ChEMBL document CHEMBL3132819, “2-Hydroxy-substituted cinnamic acids and acetanilides are selective growth inhibitors of Mycobacterium tuberculosis” (Medchemcomm, 2014) are described below.

In brackets after ≈: the same amount, converted by molar mass.

This experiment concerns Mycobacterium tuberculosis variant bovis BCG. As to the kind of experiment: Antibacterial activity against Mycobacterium bovis BCG ATCC 35734 after 2 weeks by spot culture growth inhibition assay. It counts as functional. The conditions noted are these: ATCC 35734, 336 h.

`O=C(O)/C=C/c1ccc2c(c1)OCO2` had an MIC of 416 µM (≈ 79.9 µg/mL).
As for `CC(=O)Nc1ccccc1O`, the MIC turned out to be 132 µM (≈ 20 µg/mL).
The same measure for `COC(=O)/C=C/c1cccc(O)c1`: 561 µM (≈ 100 µg/mL).
Take `CC(C)=CCC/C(C)=C/COc1ccc(/C=C/C(=O)O)cc1`: the lowest concentration to inhibit growth (MIC) was 134 µM (≈ 40.3 µg/mL).
Take `COC(=O)/C=C/c1ccc(OC/C=C(\C)CCC=C(C)C)cc1`: the MIC was 254 µM (≈ 79.9 µg/mL).
The same measure for `COC(=O)/C=C/c1ccc(OCC=C(C)C)cc1`: 60.9 µM (≈ 15 µg/mL).
`COC(=O)/C=C/c1cccc(OCC=C(C)C)c1` registered an MIC of 244 µM (≈ 60.1 µg/mL).
Take `COC(=O)/C=C/c1ccccc1OCC=C(C)C`: the MIC is more than 406 µM.
With `CC(C)=CCOc1cccc(/C=C/C(=O)O)c1` the figure was 258 µM (≈ 59.9 µg/mL).
Take `CC(C)=CCOc1ccccc1/C=C/C(=O)O`: the MIC came to 258 µM (≈ 59.9 µg/mL).
With `CC(C)=CCOc1ccc(/C=C/C(=O)O)cc1` the figure was 86.1 µM (≈ 20 µg/mL).
On to `COC(=O)/C=C/c1ccccc1O`, for which the MIC is 112 µM (≈ 20 µg/mL).
The same measure for `O=C(O)/C=C/c1cccc(O)c1`: 609 µM (≈ 100 µg/mL); for `CC(=O)Nc1ccc(O)cc1` [ACETAMINOPHEN]: more than 661 µM; for `O=C(O)/C=C/c1ccccc1` [CINNAMIC ACID]: 405 µM (≈ 60 µg/mL).
In turn, `O=C(O)/C=C/c1ccc(O)cc1` [COUMARIC ACID] gave an MIC of 366 µM (≈ 60.1 µg/mL). The MIC values of the last two compounds are within 1.5-fold of each other.
The same measure for `NNC(=O)c1ccncc1` [ISONIAZID]: 0.73 µM (≈ 0.1 µg/mL); for `CC(=O)Nc1cccc(O)c1` [METACETAMOL]: more than 661 µM; for `COC(=O)/C=C/c1ccc(O)cc1` [METHYL P-HYDROXYCINNAMATE]: 337 µM (≈ 60 µg/mL).
Compound `O=C(O)/C=C/c1ccccc1O` [O-COUMARIC ACID] returned an MIC of 244 µM (≈ 40.1 µg/mL). This MIC and that of the compound before are within 1.5-fold of each other.
With `CO[C@H]1/C=C/O[C@@]2(C)Oc3c(C)c(O)c4c(O)c(c(/C=N/N5CCN(C)CC5)c(O)c4c3C2=O)NC(=O)/C(C)=C\C=C\[C@H](C)[C@H](O)[C@@H](C)[C@@H](O)[C@@H](C)[C@H](OC(C)=O)[C@@H]1C` [RIFAMPIN] the figure was 0.0607 µM (≈ 0.05 µg/mL).
